# System: degranulation of cells to release β-hexosaminidase
# Test: β-hexosaminidase release from cells, determined by ELISA (allergy triggering / allergy induction)
# Assay type: cell-based
# Conditions: Ctr results of FIG. 1, stimulant alone
# Description: […] Comparisons of the sea grape extract (I) alone group, refined sea grape (I) alone group and the control group.
# Calcium ionophore A23187 stimulates degranulation of cells to release the allergic mediator, β-hexosaminidase, the concentration of β-hexosaminidase is determined by enzyme-linked immunosorbent assay (ELISA).
compound,measurement,value
CNc1ccc2oc(C[C@H]3O[C@@]4(CC[C@H]3C)O[C@H]([C@H](C)C(=O)c3ccc[nH]3)[C@H](C)C[C@H]4C)nc2c1C(=O)O [Calcium ionophore A23187],release of β-hexosaminidase,induces release

# Reference: US10561692B2, “Allergy-inhibiting sea grape extract, its preparation method and application thereof” (Teh Fong Min International Co., Ltd., priority 2016, dated 2020)
